From PMC9687610, “Adenosine-Mimicking Derivatives of 3-Aminopyrazine-2-Carboxamide: Towards Inhibitors of Prolyl-tRNA Synthetase with Antimycobacterial Activity” (Biomolecules, 2022)
≈ marks a conversion by molar mass, not a printed value. Where two headings read alike, the source gives them in different places.

How the values were obtained:
[1] = tested on: Candida parapsilosis CCM 8260 (ATCC 22019); experiment: Antifungal microdilution broth (EUCAST), CP; assay type: cell-based; conditions: Lodderomyces parapsilosis, read-out: CP MIC
[2] = tested on: Staphylococcus aureus subsp. aureus methicillin-resistant (MRSA) CCM 4750 (ATCC 43300); experiment: Antibacterial microdilution broth (EUCAST), MRSA; assay type: cell-based; conditions: Staphylococcus aureus, read-out: MRSA MIC
[3] = tested on: Enterococcus faecalis CCM 4224 (ATCC 29212); experiment: Antibacterial microdilution broth (EUCAST), EF; assay type: cell-based; conditions: Enterococcus faecalis, read-out: EF MIC
[4] = tested on: Pseudomonas aeruginosa CCM 3955 (ATCC 27853); experiment: Antibacterial microdilution broth (EUCAST), PA; assay type: cell-based; conditions: Pseudomonas aeruginosa, read-out: PA MIC
[5] = tested on: Lichtheimia corymbifera CCM 8077; experiment: Antifungal microdilution broth (EUCAST), LC; assay type: cell-based; conditions: Lichtheimia corymbifera, read-out: LC MIC
[6] = tested on: Aspergillus fumigatus ATCC 204305; experiment: Antifungal microdilution broth (EUCAST), AF; assay type: cell-based; conditions: Aspergillus fumigatus, read-out: AF MIC
[7] = tested on: Mycobacterium smegmatis DSM 43465 (ATCC 607); experiment: Microplate Alamar Blue Assay (MABA), M. smegmatis; assay type: cell-based; conditions: Mycolicibacterium smegmatis, read-out: M. smegmatis MIC
[8] = tested on: Candida krusei CCM 8271 (ATCC 6258); experiment: Antifungal microdilution broth (EUCAST), CK; assay type: cell-based; conditions: Pichia kudriavzevii, read-out: CK MIC
[9] = tested on: Mycobacterium tuberculosis H37Ra ITM-M006710 (ATCC 9431); experiment: Microplate Alamar Blue Assay (MABA), Mtb H37Ra; assay type: cell-based; conditions: Mycobacterium tuberculosis, 120 h
[10] = tested on: Staphylococcus epidermidis CCM 4418 (ATCC 12228); experiment: Antibacterial microdilution broth (EUCAST), SE; assay type: cell-based; conditions: read-out: SE MIC
[11] = tested on: Acinetobacter baumannii DSM 30007 (ATCC 19606); experiment: Antibacterial microdilution broth (EUCAST), ACI; assay type: cell-based; conditions: Acinetobacter baumannii, read-out: ACI MIC
[12] = tested on: Candida tropicalis CCM 8264 (ATCC 750); experiment: Antifungal microdilution broth (EUCAST), CT; assay type: cell-based; conditions: Candida tropicalis, read-out: CT MIC
[13] = tested on: HepG2 human hepatocellular carcinoma cells; experiment: In vitro HepG2 cytotoxicity (CellTiter 96); conditions: Homo sapiens, HepG2, 24 h, read-out: HepG2 IC50, 24 h incubation; * limit = highest evaluated concentration (precipitation in medium); ** over the 1000 µM limit
[14] = tested on: Staphylococcus aureus subsp. aureus CCM 4223 (ATCC 29213); experiment: Antibacterial microdilution broth (EUCAST), SA; assay type: cell-based; conditions: Staphylococcus aureus, read-out: SA MIC
[15] = tested on: Aspergillus flavus CCM 8363; experiment: Antifungal microdilution broth (EUCAST), AFla; assay type: cell-based; conditions: Aspergillus flavus, read-out: AFla MIC
[16] = tested on: Escherichia coli CCM 3954 (ATCC 25922); experiment: Antibacterial microdilution broth (EUCAST), EC; assay type: cell-based; conditions: Escherichia coli, read-out: EC MIC
[17] = tested on: Klebsiella pneumoniae CCM 4415 (ATCC 10031); experiment: Antibacterial microdilution broth (EUCAST), KP; conditions: read after 24 h
[18] = tested on: M. aurum DSM 43999 (ATCC 23366); experiment: Microplate Alamar Blue Assay (MABA), M. aurum; assay type: cell-based; conditions: Mycolicibacterium aurum, read-out: M. aurum MIC
[19] = tested on: Candida albicans CCM 8320 (ATCC 24433); experiment: Antifungal microdilution broth (EUCAST), CA; assay type: cell-based; conditions: Candida albicans, read-out: CA MIC
[20] = tested on: Trichophyton interdigitale CCM 8377 (ATCC 9533); experiment: Antifungal microdilution broth (EUCAST), TI; assay type: cell-based; conditions: Trichophyton interdigitale, 72 h, read-out: TI MIC
[21] = pH 6.6, MABA, Middlebrook 7H9 broth pH 6.6, resazurin after 120 h, read-out: Mtb H37Ra MIC

Compound	MIC ([1]; read after 24 h) [µM]	melting point [°C]	MIC ([2]; read after 24 h) [µM]	MIC ([3]; read after 24 h) [µM]	MIC ([4]; read after 24 h) [µM]	MIC ([5]; CCM8077, read after 24 h) [µM]	MIC ([6]; ATCC204305, read after 24 h) [µM]	MIC ([7]; MABA, resazurin after 48 h) [µg/mL]	MIC ([8]; read after 24 h) [µM]	MIC [9, 21] [µg/mL]	MIC ([10]; read after 24 h) [µM]	MIC ([11]; read after 24 h) [µM]	MIC ([12]; read after 24 h) [µM]	MIC ([14]; read after 24 h) [µM]	MIC ([15]; CCM8363, read after 24 h) [µM]	MIC ([16]; read after 24 h) [µM]	KP MIC [17] [µM]	MIC ([18]; MABA, resazurin after 72 h) [µg/mL]	MIC ([19]; read after 24 h) [µM]	MIC [20] [µM]	further results
Cc1ccccc1C(=O)Nc1nccnc1C(N)=O [Compound 2]	> 125	234.4 to 235.9	> 500	> 500	> 500	> 125	> 125	≥ 500	> 125	≥ 500	> 500	> 500	> 125	> 500	> 125	> 500	> 500	≥ 500	> 125	> 125	IC50 [13]: 422 µM
COC(=O)c1nccnc1NC(=O)c1ccc(C)cc1 [Compound 4e]	> 500	158.9 to 161.2	> 500	> 500	> 500	> 500	> 500	62.5 (≈ 230 µM)	> 500	250 (≈ 922 µM)	> 500	> 500	> 500	> 500	> 500	> 500	> 500	250 (≈ 922 µM)	> 500	> 500	–
COC(=O)c1nccnc1NC(=O)c1ccc(OC)cc1 [Compound 9e]	> 500	144.5 to 145	> 500	> 500	> 500	> 500	> 500	≥ 500	> 500	≥ 500	> 500	> 500	> 500	> 500	> 500	> 500	> 500	≥ 500	> 500	> 500	–
COC(=O)c1nccnc1NC(=O)c1ccccc1F [Compound 10e]	–	123.2 to 125.4	–	–	–	–	–	≥ 500	–	250 (≈ 908 µM)	–	–	–	–	–	–	–	≥ 500	–	–	–
COC(=O)c1nccnc1NC(=O)c1cccc(F)c1 [Compound 11e]	–	135.5 to 136.3	–	–	–	–	–	≥ 500	–	250 (≈ 908 µM)	–	–	–	–	–	–	–	≥ 500	–	–	–
COC(=O)c1nccnc1NC(=O)c1ccc(F)cc1 [Compound 12e]	–	151.1 to 153.6	–	–	–	–	–	≥ 500	–	≥ 500	–	–	–	–	–	–	–	≥ 500	–	–	–
COC(=O)c1nccnc1NC(=O)c1ccccc1Cl [Compound 13e]	–	114.5 to 115.6	–	–	–	–	–	250 (≈ 857 µM)	–	≥ 500	–	–	–	–	–	–	–	≥ 500	–	–	–
COC(=O)c1nccnc1NC(=O)c1cccc(Cl)c1 [Compound 14e]	> 500	146.3 to 147.1	> 500	> 500	> 500	> 500	> 500	125 (≈ 429 µM)	> 500	250 (≈ 857 µM)	> 500	> 500	> 500	> 500	> 500	> 500	> 500	250 (≈ 857 µM)	> 500	> 500	–
COC(=O)c1nccnc1NC(=O)c1ccccc1Br [Compound 16e]	> 500	168.4 to 169.2	> 500	> 500	> 500	> 500	> 500	≥ 500	> 500	125 (≈ 372 µM)	> 500	> 500	> 500	> 500	> 500	> 500	> 500	≥ 500	> 500	> 500	–
COC(=O)c1nccnc1NC(=O)c1cccc(Br)c1 [Compound 17e]	> 500	123.3 to 125.2	> 500	> 500	> 500	> 500	> 500	≥ 500	> 500	≥ 500	> 500	> 500	> 500	> 500	> 500	> 500	> 500	≥ 500	> 500	> 500	–
COC(=O)c1nccnc1NC(=O)c1ccc(Br)cc1 [Compound 18e]	> 500	195.1 to 197	> 500	> 500	> 500	> 500	> 500	≥ 500	> 500	≥ 500	> 500	> 500	> 500	> 500	> 500	> 500	> 500	≥ 500	> 500	> 500	–
NC(=O)c1nccnc1NC(=O)c1ccccc1O [Compound 22]	–	> 300	–	–	–	–	–	≥ 500	–	–	–	–	–	–	–	–	–	≥ 500	–	–	MIC ([9]; pH 6.6, read-out: Mtb H37Ra MIC, MABA, Middlebrook 7H9 broth pH 6.6, resazurin after 120 h): ≥ 500 µg/mL; IC50 [13]: > 250 µM
NC(=O)c1nccnc1NC(=O)c1ccc(O)cc1 [Compound 23]	–	243.7 to 245.1	–	–	–	–	–	≥ 500	–	≥ 500	–	–	–	–	–	–	–	≥ 500	–	–	IC50 [13]: > 500 µM
NC(=O)c1nccnc1NC(=O)c1ccc(N)cc1 [Compound 24, 3-(4-aminobenzamido)pyrazine-2-carboxamide]	–	> 300	–	–	–	–	–	≥ 250	–	125 (≈ 486 µM)	–	–	–	–	–	–	–	≥ 250	–	–	IC50 [13]: 929 µM
COC(=O)c1nccnc1NC(=O)C1CCCCC1 [Compound 27e]	> 500	106.9 to 108.3	> 500	> 500	> 500	> 500	> 500	125 (≈ 475 µM)	> 500	≥ 500	> 500	> 500	> 500	> 500	> 500	> 500	> 500	≥ 500	> 500	> 500	–
COC(=O)c1nccnc1NC(=O)C12CC3CC(CC(C3)C1)C2 [Compound 28e]	–	225.6 to 227.2	–	–	–	–	–	–	–	≥ 125	–	–	–	–	–	–	> 125	–	–	> 125	MIC ([1]; 24 h): > 125 µM; MIC ([2]; 24 h): > 125 µM; MIC ([3]; 24 h): > 125 µM; MIC ([4]; 24 h): > 125 µM; MIC ([5]; CCM8077, 24 h): > 125 µM; MIC ([6]; ATCC204305, 24 h): > 125 µM; MIC ([7]; 48 h): ≥ 125 µg/mL; MIC ([8]; 24 h): > 125 µM; MIC ([10]; 24 h): > 125 µM; MIC ([11]; 24 h): > 125 µM; MIC ([12]; 24 h): > 125 µM; MIC ([14]; 24 h): > 125 µM; MIC ([15]; CCM8363, 24 h): > 125 µM; MIC ([16]; 24 h): > 125 µM; MIC ([18]; 72 h): ≥ 125 µg/mL; MIC ([19]; 24 h): > 125 µM
